Water dispersibility and bioavailability data for one compound are collected here from US11583498B2 (Wakamono Corporation, priority 2020, dated 2023).

Data set [1] is described as follows: Water dispersibility comparison (FIG. 1). The class given is physicochemical. The conditions noted are these: dispersed in water, vials of FIG. 1. The source says: With reference to FIG. 1, water dispersibility was compared between the known 95% Tan IIA and nano Tan IIA obtained by the process according to the present invention, in which Vial A represented the known 95% Tan IIA dispersed in water, Vial B represented nano Tan IIA dispersed in water obtained by the process according to the present invention.

For data set [2] the following is noted: oral administration; cited from earlier work.

As for `Cc1coc2c1C(=O)C(=O)c1c-2ccc2c1CCCC2(C)C` [Tan IIA, Tanshinone IIA], in data set [1], the water dispersibility entry is “water insoluble”. Further, the bioavailability result in data set [2] was “low bioavailability”.
